The assay concerns HEK293. Description: Inhibition of Ca2+ release activated Ca2+ channels in thapsigarin-treated HEK cells. The class given is cell-based. The conditions noted are these: Homo sapiens.

As for `CNC(=O)C[C@H]1C(=O)N(C)[C@@H](C)C(=O)OC(C)CCC/C=C/CCC(OC)C/C=C/C=C(\C)C(=O)N[C@H](C(C)C)C(=O)N(C)[C@@H](Cc2ccccc2)C(=O)N(C)[C@@H](C(C)C)C(=O)N(C)[C@@H](C(C)C)C(=O)N2CCC[C@H]2C(=O)N1C` (stereo partly specified), the Activity entry is “Dose-dependent effect”.

Values taken from ChEMBL document CHEMBL1149904, “Isolation and structure determination of malevamide E, a dolastatin 14 analogue, from the marine cyanobacterium Symploca laete-viridis” (J Nat Prod, 2008).
